Measurements published in ChEMBL document CHEMBL1135314, “Synthesis of tag introducible (3-trifluoromethyl)phenyldiazirine based photoreactive phenylalanine” (Bioorg Med Chem Lett, 2002).

Test: Half life of compound was determined.
Format: ADME

half-life [min] | Structure (SMILES)
2.3 | N[C@@H](Cc1ccc(C2(C(F)(F)F)N=N2)cc1OCCOCCOCCNC(=O)CCCC[C@@H]1SC[C@@H]2NC(=O)N[C@@H]21)C(=O)O
2.6 | N[C@@H](Cc1ccc(C2(C(F)(F)F)N=N2)cc1OCCNC(=O)CCCC[C@@H]1SC[C@@H]2NC(=O)N[C@@H]21)C(=O)O
